Like-named read-outs stand apart in the source and are kept apart here.
B1: 21/26-mer-dGC8-N-ABA (dsDNA)
DNA 1: AACGACGGCCAGTGAATTCGC
DNA 2: CCCGCGCGAATTCACTGGCCGTCGTT
modifications: N-(2'-deoxyguanosin-8-yl)-3-aminobenzanthrone (dGC8-N-ABA) at G6 of strand 2 (from 5' end)
B2: 22/26-mer-dGC8-N-ABA (dsDNA)
DNA 1: AACGACGGCCAGTGAATTCGCG
DNA 2: CCCGCGCGAATTCACTGGCCGTCGTT
modifications: N-(2'-deoxyguanosin-8-yl)-3-aminobenzanthrone (dGC8-N-ABA) at G6 of strand 2 (from 5' end)

Legend:
[1] = tested on: Salmonella typhimurium (TA98); conditions: cited from earlier work
Dpo4•DNA binary complex = biological target: T1, Dpo4•DNA binary complex (Saccharolobus solfataricus, UniProt Q97W02); test: Substrate specificity assay; format: biochemical, Sulfolobus solfataricus; conditions: for Probability: efficiency/sum of efficiencies × 100; for kp / Kd: Dpo4 120 nM, 37 °C; for Fidelity: incorrect/(correct+incorrect) efficiency; for Kd: read-out: Kd,dNTP
T1 sequence (Q97W02 1-352): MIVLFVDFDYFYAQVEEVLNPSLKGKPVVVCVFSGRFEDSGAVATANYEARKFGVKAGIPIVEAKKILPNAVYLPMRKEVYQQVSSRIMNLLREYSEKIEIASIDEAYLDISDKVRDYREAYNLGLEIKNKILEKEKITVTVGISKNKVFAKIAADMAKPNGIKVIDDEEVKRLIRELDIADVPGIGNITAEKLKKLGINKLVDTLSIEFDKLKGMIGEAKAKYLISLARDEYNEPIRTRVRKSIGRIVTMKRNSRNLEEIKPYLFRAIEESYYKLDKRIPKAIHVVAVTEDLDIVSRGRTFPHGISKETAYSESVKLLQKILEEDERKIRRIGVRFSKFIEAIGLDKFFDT

[2] = tested on: nucleotide excision repair-deficient human XPA cells; conditions: cited from earlier work
Dpo4 (DNA polymerase IV) = biological target: T2, Dpo4 (DNA polymerase IV) (Sulfolobus solfataricus, UniProt Q97W02 1-352); test: EMSA
T2 sequence: T1 sequence (Q97W02 1-352)

[3] = DNA substrate 18/26-mer-dG^C8-N-ABA
[4] = DNA substrate 18/26-mer-dG^C8-N-ABA vs control 18/26-mer
[5] = DNA substrate 19/26-mer-dG^C8-N-ABA
[6] = DNA substrate 19/26-mer-dG^C8-N-ABA 30 nM
[7] = DNA substrate 19/26-mer-dG^C8-N-ABA vs control 19/26-mer
[8] = DNA substrate 20/26-mer-dG^C8-N-ABA (pause site)
[9] = DNA substrate 20/26-mer-dG^C8-N-ABA vs control 20/26-mer
[10] = DNA substrate 20/26-mer-dG^C8-N-ABA
[11] = DNA substrate 21/26-mer-dG^C8-N-ABA (pause site)
[12] = DNA substrate 21/26-mer-dG^C8-N-ABA (pause site) 30 nM
[13] = DNA substrate 21/26-mer-dG^C8-N-ABA vs control 21/26-mer
[14] = DNA substrate 21/26-mer-dG^C8-N-ABA
[15] = DNA substrate 22/26-mer-dG^C8-N-ABA
[16] = DNA substrate 22/26-mer-dG^C8-N-ABA vs control 22/26-mer
[17] = DNA substrate 18/26-mer-dG^C8-N-ABA 30 nM
[18] = DNA substrate 21/26-mer-dG^C8-N-ABA (pause site, extension) 30 nM
[19] = DNA substrate 22/26-mer-dG^C8-N-ABA 30 nM
[20] = DNA substrate 20/26-mer-dG^C8-N-ABA (pause site) 30 nM

Molecule	(kp/Kd, dNTP)damaged (Dpo4•DNA binary complex; [3]) [M⁻¹ s⁻¹]	Efficiency Ratio (kp/Kd, dNTP)control/(kp/Kd, dNTP)damaged (Dpo4•DNA binary complex; [4])	Probability (Dpo4•DNA binary complex; [3])	(kp/Kd, dNTP)damaged (Dpo4•DNA binary complex; [5]) [M⁻¹ s⁻¹]	kp (Dpo4•DNA binary complex; [6])	Efficiency Ratio (kp/Kd, dNTP)control/(kp/Kd, dNTP)damaged (Dpo4•DNA binary complex; [7])	Probability (Dpo4•DNA binary complex; [5])	Fidelity (Dpo4•DNA binary complex; [5])	(kp/Kd, dNTP)damaged (Dpo4•DNA binary complex; [8]) [M⁻¹ s⁻¹]	Efficiency Ratio (kp/Kd, dNTP)control/(kp/Kd, dNTP)damaged (Dpo4•DNA binary complex; [9])	Probability (Dpo4•DNA binary complex; [10])	(kp/Kd, dNTP)damaged (Dpo4•DNA binary complex; [11]) [M⁻¹ s⁻¹]	kp (Dpo4•DNA binary complex; [12])	Efficiency Ratio (kp/Kd, dNTP)control/(kp/Kd, dNTP)damaged (Dpo4•DNA binary complex; [13])	Probability (Dpo4•DNA binary complex; [14])	Fidelity (Dpo4•DNA binary complex; [14])	Efficiency Ratio (kp/Kd, dNTP)control/(kp/Kd, dNTP)damaged (Dpo4•DNA binary complex; [16])	Probability (Dpo4•DNA binary complex; [15])	Kd (Dpo4•DNA binary complex; [18]) [µM]	Kd (Dpo4•DNA binary complex; [19]) [µM]	other results
O=C1c2ccccc2-c2ccc([N+](=O)[O-])c3cccc1c23 [3-NBA, 3-Nitrobenzanthrone]																					mutagenicity [1]: one of the most mutagenic compound ever tested
Nc1ncnc2c1ncn2[C@H]1C[C@H](O)[C@@H](COP(=O)(O)OP(=O)(O)OP(=O)(O)O)O1 [dATP]	9.1	0.85	0.01	6.7	(2.9 ± 0.2) × 10^−3 s^−1	2.1	0.07	7.0 × 10^−4	3	6.3	0.61	1	(4.5 ± 0.2) × 10^−4 s^−1	2.4	3.83	4.3 × 10^−2	0.38	0.34	450 ± 50	470 ± 70	Fidelity (Dpo4•DNA binary complex; [10]): 6.1 × 10^−4; (kp/Kd, dNTP)damaged (Dpo4•DNA binary complex; [15]): 11 M⁻¹ s⁻¹; Fidelity (Dpo4•DNA binary complex; [15]): 3.4 × 10^−4; Kd (Dpo4•DNA binary complex; [17]): 2200 ± 600 µM; Kd (Dpo4•DNA binary complex; [6]): 430 ± 60 µM
Nc1ccn([C@H]2C[C@H](O)[C@@H](COP(=O)(O)OP(=O)(O)OP(=O)(O)O)O2)c(=O)n1 [dCTP]	88000	1.25	99.95	6.4	(1.4 ± 0.2) × 10^−3 s^−1	22	0.06	6.7 × 10^−4	490	120	98.93	2.7	(4.3 ± 0.1) × 10^−4 s^−1	12	10.34	1.1 × 10^−1	11	99.55	160 ± 20	1400 ± 300	kp (Dpo4•DNA binary complex; [17]): 2.83 ± 0.08 s⁻¹; kp (Dpo4•DNA binary complex; [20]): 0.25 ± 0.02 s⁻¹; kp (Dpo4•DNA binary complex; [19]): 4.5 ± 0.7 s⁻¹; Kd (Dpo4•DNA binary complex; [17]): 32 ± 5 µM; Kd (Dpo4•DNA binary complex; [6]): 220 ± 80 µM
Nc1nc2c(ncn2[C@H]2C[C@H](O)[C@@H](COP(=O)(O)OP(=O)(O)OP(=O)(O)O)O2)c(=O)[nH]1 [dGTP]	18	1.6	0.02	9600	0.48 ± 0.02 s⁻¹	2.6	99.82		0.68	66	0.14	22	(8.9 ± 0.7) × 10^−4 s^−1	170	84.26		6.5	0.04	400 ± 80	1100 ± 200	kp (Dpo4•DNA binary complex; [20]): (8.1 ± 0.1) × 10^−4 s^−1; Fidelity (Dpo4•DNA binary complex; [10]): 1.4 × 10^−4; (kp/Kd, dNTP)damaged (Dpo4•DNA binary complex; [15]): 1.3 M⁻¹ s⁻¹; Fidelity (Dpo4•DNA binary complex; [15]): 4.1 × 10^−4; Kd (Dpo4•DNA binary complex; [17]): 350 ± 40 µM; Kd (Dpo4•DNA binary complex; [6]): 50 ± 9 µM
Nc1nc2c(nc(Nc3ccc4c5c(cccc35)C(=O)c3ccccc3-4)n2[C@H]2C[C@H](O)[C@@H](CO)O2)c(=O)[nH]1 [dG^C8-N-ABA, N-(2’-deoxyguanosin-8-yl)-3-aminobenzanthrone]																					replication block among the three major 3-NBA derived DNA adducts [2]: strongest replication block; mutational frequency ([2]; primarily G-to-A transitions followed by G-to-T transversions): 30.6%
Cc1cn([C@H]2C[C@H](O)[C@@H](COP(=O)(O)OP(=O)(O)OP(=O)(O)O)O2)c(=O)[nH]c1=O [dTTP]	16	5.4	0.02	5.5		1.6	0.05	5.7 × 10^−4	1.6	52	0.32	0.4	(1.7 ± 0.1) × 10^−4 s^−1	4.5	1.57	1.8 × 10^−2	5.0	0.07	420 ± 80	770 ± 140	(kp/Kd, dNTP)damaged (Dpo4•DNA binary complex; [15]): 2.2 M⁻¹ s⁻¹; Fidelity (Dpo4•DNA binary complex; [15]): 6.9 × 10^−4
B1																					Kd (Dpo4 (DNA polymerase IV)): 0.029 ± 0.007 µM
B2																					Kd (Dpo4 (DNA polymerase IV)): 0.005 ± 0.0009 µM

Reference: PMC4133103 (DNA repair, 2014)
